Reference: PMC4657974, “Positive Allosteric Modulation of Kv Channels by Sevoflurane: Insights into the Structural Basis of Inhaled Anesthetic Action” (PLoS ONE, 2015)

What was measured:
Format in all cases: cell-based
[1] = target: T1, K-Shaw2 (Drosophila melanogaster, UniProt P17972); assay: two-electrode voltage clamp, Xenopus oocytes, Hill fit; settings: inhibition; pH 7.4; 21-23 °C; voltage not given; read-out: K 1; cited from earlier work
T1 construct: gene Shaw; full-length channel, homotetramer, expressed in Xenopus oocytes from cRNA
T1 sequence (P17972 1-498): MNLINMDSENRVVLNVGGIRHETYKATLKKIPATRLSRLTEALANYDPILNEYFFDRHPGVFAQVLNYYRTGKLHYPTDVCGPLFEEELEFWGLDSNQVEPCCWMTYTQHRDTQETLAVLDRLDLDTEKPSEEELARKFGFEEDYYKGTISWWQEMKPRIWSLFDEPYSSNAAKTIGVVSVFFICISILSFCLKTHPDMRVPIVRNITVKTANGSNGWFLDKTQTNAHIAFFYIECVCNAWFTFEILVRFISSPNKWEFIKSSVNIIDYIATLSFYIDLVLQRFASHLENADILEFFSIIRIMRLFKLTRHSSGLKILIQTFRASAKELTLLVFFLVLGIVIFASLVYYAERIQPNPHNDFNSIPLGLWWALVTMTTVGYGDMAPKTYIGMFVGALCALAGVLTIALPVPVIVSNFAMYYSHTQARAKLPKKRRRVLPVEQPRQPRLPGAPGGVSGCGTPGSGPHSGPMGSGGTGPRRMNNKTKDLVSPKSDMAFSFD
Source text: two-electrode voltage clamp, Xenopus oocytes, Hill fit on K-Shaw2

[2] = target: T2, ΔT1-K-Shaw2 (Drosophila melanogaster, UniProt P17972, DEL2-155); assay: as above; settings: read-out: K 1
T2 construct: gene Shaw; T1 domain deleted (lacks residues 2-155), homotetramer, expressed in Xenopus oocytes
T2 sequence (P17972 with tags, fused parts or gaps DEL2-155): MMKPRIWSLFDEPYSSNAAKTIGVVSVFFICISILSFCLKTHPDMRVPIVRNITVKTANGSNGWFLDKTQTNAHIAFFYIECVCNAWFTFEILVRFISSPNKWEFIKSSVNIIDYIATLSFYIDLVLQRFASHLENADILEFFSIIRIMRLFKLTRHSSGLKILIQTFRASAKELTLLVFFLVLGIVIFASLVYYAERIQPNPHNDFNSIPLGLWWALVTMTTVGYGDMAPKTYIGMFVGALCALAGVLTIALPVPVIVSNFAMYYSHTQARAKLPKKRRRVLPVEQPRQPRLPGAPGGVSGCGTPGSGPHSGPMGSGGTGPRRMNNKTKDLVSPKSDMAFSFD
Source text: two-electrode voltage clamp, Xenopus oocytes, Hill fit on ΔT1-K-Shaw2

[3] = target: T1, K-Shaw2; assay: two-electrode voltage clamp, Xenopus oocytes, double Hill fit; settings: read-out: K 1
Source text: two-electrode voltage clamp, Xenopus oocytes, double Hill fit on K-Shaw2 | Solid line is the best-fit double Hill equation to the K-Shaw2 data

ClC(Cl)Cl [chloroform]
IC50 [1]: 700 µM

FC(F)(F)C(Cl)Br (centres unmarked) [halothane]
IC50 [1]: 260 µM | IC50 [2]: 380 µM

FC(F)OC(Cl)C(F)(F)F (centres unmarked) [isoflurane]
IC50 [1]: 1690 µM

CCCCO [n-butanol]
IC50 [1]: 10100 µM | IC50 [2]: 16400 µM

CC(C)c1cccc(C(C)C)c1O [propofol]
IC50 [1]: 60 µM

FCOC(C(F)(F)F)C(F)(F)F [sevoflurane]
EC50 [3]: 80 µM
